# Test results from PMC11922053 (Science Advances, 2025).
# Where a SMILES comes first, the peptide text is derived from it. Bridges are numbered along the chain shown (N, C = ends). [ ]: non-standard residue; d: D form. The star is where a group is joined. Biotin = O=C1N[C@H]2[C@H](CS[C@H]2CCCCC(=O)*)N1; 2Nal = N[C@@H](Cc1ccc2ccccc2c1)C(=O)O; Gly(cPent) = N[C@H](C(=O)O)C1CCCC1; Hyp = O=C(O)[C@@H]1C[C@@H](O)CN1; Pen = CC(C)(S)[C@H](N)C(=O)O; Api = NC1(C(=O)O)CCNCC1; Ahx = NCCCCCC(=O)O
# Target: chymotrypsin (Bos taurus, UniProt P00766)
# Assay: Protease stability assay with chymotrypsin
# Assay type: in vitro ADME
# Settings: NCBP-4 versus CBP; 50:1 by mass, up to 30 min, LC-MS
structure (smiles),measurement,value
CC1(C)SSC[C@H](NC(=O)[C@H](Cc2ccccc2)NC(=O)[C@@H](NC(=O)[C@H](Cc2ccccc2)NC(=O)C2(NC(=O)[C@H](Cc3ccc4ccccc4c3)NC(=O)[C@H](CCCCN)NC(=O)CCCCCNC(=O)[C@@H](N)CCCCNC(=O)CCCC[C@@H]3SC[C@@H]4NC(=O)N[C@@H]43)CCNCC2)C2CCCC2)C(=O)N2C[C@H](O)C[C@H]2C(=O)N[C@@H](Cc2ccccc2)C(=O)N[C@@H](Cc2ccc(O)cc2)C(=O)N[C@@H](Cc2ccc(O)cc2)C(=O)N[C@@H](CCCCN)C(=O)N2C[C@H](O)C[C@H]2C(=O)N[C@@H]1C(=O)N[C@@H](CCCCN)C(N)=O [NCBP-4] (H-K(Biotin)[Ahx]K[2Nal][Api]F[Gly(cPent)]FC[Hyp]FYYK[Hyp][Pen]K-NH2; disulfide 9-16; N-terminus assumed),fold increase in half-life with chymotrypsin relative to CBP,40 fold
